The values that follow come from patent publication US11925629B2, “Heterocyclic inhibitors of ERK1 and ERK2 and their use in the treatment of cancer” (Asana Biosciences, LLC, priority 2015, dated 2024).

Like-named read-outs stand apart in the source and are kept apart here.

Common to all, as to assay type: cell-based, human
In experiment [1] the test system is HT-29 (colorectal carcinoma, B-RafV600E) cells. Kind of experiment: Cell proliferation (Alamar Blue) assay, HT-29. Particulars: Homo sapiens, HT-29, HT29 cells. Put shortly:
(§1)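 Fluorescence read-out (ex 540 nm, em 590 nm) after 1-3 h with 1× Alamar Blue, following 72 h compound exposure at 37° C./5% CO2. Compounds tested at typically 0.0005 to 10 uM, 3-fold steps; IC50 by sigmoidal dose-response (variable slope).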
On the technique in general: Alamar Blue is a resazurin reagent that responds to reducing activity.

Experiment [2] relates to HCT116 (colorectal carcinoma, K Ras G13D) cells. Kind of experiment: Cell proliferation (Alamar Blue) assay, HCT116. Particulars: Homo sapiens, HCT-116, HCT116 cells. Put shortly:
as §1

For experiment [3], the system named is phosphorylation of RSK1(S380) (the downstream target of ERK1/2). The experiment in a line: Phospho-RSK1(S380) ELISA assay in HT-29 cells. Particulars: Homo sapiens, HT-29, HT29 cells, read-out: Mechanistic Cell Assay RSK1 Phos HT29 IC50. The procedure: Phospho-RSK1(S380) ELISA Assay
HT-29 cells (colorectal carcinoma, B-RafV600E); obtained from ATCC, USA) were seeded (60,000 cells/well) in a 96-well plate and incubated at 37° C./5% CO2 overnight and then treated with desired compound dilutions for 2 h. Medium was removed and cells were rinsed once with ice-cold 1×PBS, then 0.070 mL ice-cold 1× cell lysis buffer containing 1 mM PMSF was added to each well and the plate was incubated on a shaker for 2 h and 30 min at 4° C. The plate was then centrifuged for 20 min (×4000 rpm) at 4° C. and the supernatant was transferred to a new plate. Cell lysates were diluted with sample diluent at a ratio of 1:1. The ELISA was then carried out following the manufacturer's protocol (PathScan® phospho-RSK1(Ser380) Sandwich ELISA Kit, Cell Signaling Technologies). The plate was read at 450 nm within 30 min after adding STOP solution. The IC50 values were subsequently determined using a sigmoidal dose-response curve (variable slope) in GraphPad Prism® 5 software.
On the technique in general: An ELISA detects its analyte on a solid surface through an enzyme-linked reagent.

In the case of `Cc1cnc(NC2CCOCC2)nc1-n1cnc(C(=O)NC(CN)c2cccc(Cl)c2)c1` (racemic) [Compound 225, N-(2-Amino-1-(3-chlorophenyl)ethyl)-1-(5-methyl-2-((tetrahydro-2H-pyran-4-yl)amino)pyrimidin-4-yl)-1H-imidazole-4-carboxamide], the IC50 in experiment [1], in experiment [2] and in experiment [3] (phospho-RSK1(S380)) was not above 100 nM throughout.
On to `Cc1cnc(NC2CCOCC2)nc1-n1cnc(C(=O)N[C@@H](CN)c2cccc(Cl)c2)c1` (single isomer, unassigned) [Compound 225b], for which the IC50 in experiment [1] is not above 100 nM; in experiment [2] it was 500 to 2500 nM; in experiment [3] (phospho-RSK1(S380)), 100 to 250 nM.
The matching figures for `Cc1cnc(Nc2ccccc2)cc1-n1ccc(C(=O)NC(CO)c2ccccc2)c1` (stereo not shown) [Cmpd 74, N-(2-hydroxy-1-phenylethyl)-1-(5-methyl-2-(phenyl-amino)pyridin-4-yl)-1H-pyrrole-3-carboxamide]: 500 to 2500 nM, more than 2500 nM and 500 to 2500 nM.
Take `O=C(NC(CO)c1cccc(Cl)c1)c1cn(-c2ccnc(Nc3ccccc3)c2)cn1` (stereo not shown) [Cmpd 77, N-(1-(3-chloro-phenyl)-2-hydroxy-ethyl)-1-(2-(phenyl-amino)pyridin-4-yl)-1H-imidazole-4-carboxamide]: the values for the IC50 in experiment [1], in experiment [2] and in experiment [3] (phospho-RSK1(S380)) were 500 to 2500 nM, more than 2500 nM and 100 to 250 nM, respectively.
For the compound `Cc1ccc(C(CO)NC(=O)c2cn(-c3nc(NC4CCOCC4)ncc3C)cn2)s1` (stereo not shown) [Example 261, N-(2-hydroxy-1-(5-methylthiophen-2-yl)ethyl)-1-(5-methyl-2-((tetrahydro-2H-pyran-4-yl)amino)pyrimidin-4-yl)-1H-imidazole-4-carboxamide], the IC50 in experiment [2] is more than 2500 nM; in experiment [3] (phospho-RSK1(S380)), 500 to 2500 nM.
The matching figures for `Cc1cnc(Nc2ccc(F)cc2)nc1-n1cnc(C(=O)NCc2cccc(Cl)c2CO)c1` [Example 262, N-(3-chloro-2-(hydroxymethyl)benzyl)-1-(2-((4-fluorophenyl)amino)-5-methylpyrimidin-4-yl)-1H-imidazole-4-carboxamide]: 500 to 2500 nM and not above 100 nM.
Regarding `Cc1cnc(N[C@@H]2CCOC2)nc1-n1cnc(C(=O)N[C@H](CN)c2cccc(Cl)c2)c1` [Example 264, N-((S)-2-amino-1-(3-chlorophenyl)ethyl)-1-(5-methyl-2-(((R)-tetrahydrofuran-3-yl)amino)pyrimidin-4-yl)-1H-imidazole-4-carboxamide], the results for the IC50 in experiment [2] and in experiment [3] (phospho-RSK1(S380)) were 100 to 250 nM and not above 100 nM, respectively.
For `Cc1cnc(N[C@@H]2CCOC2)nc1-n1cnc(C(=O)N[C@H](CO)c2cccc(Cl)c2)c1` [Example 265, N-((S)-1-(3-chlorophenyl)-2-hydroxyethyl)-1-(5-methyl-2-(((R)-tetrahydrofuran-3-yl)amino)pyrimidin-4-yl)-1H-imidazole-4-carboxamide], in that order: 100 to 250 nM and 250 to 500 nM.
For `Cc1cnc(Nc2ccc3c(c2)OCO3)nc1-n1cnc(C(=O)N[C@H](CN)c2cccc(Cl)c2)c1` [Example 266, (S)-N-(2-amino-1-(3-chlorophenyl)ethyl)-1-(2-(benzo[d][1,3]dioxol-5-ylamino)-5-methylpyrimidin-4-yl)-1H-imidazole-4-carboxamide], in that order: not above 100 nM and not above 100 nM.
The matching figures for `Cc1cnc(NC2CCOCC2)nc1-n1cnc(C(=O)NC(CN)c2cccs2)c1` (stereo not shown) [Example 267, N-(2-amino-1-(thiophen-2-yl)ethyl)-1-(5-methyl-2-((tetrahydro-2H-pyran-4-yl)amino)pyrimidin-4-yl)-1H-imidazole-4-carboxamide]: 100 to 250 nM and 100 to 250 nM.
As to `Cc1cnc(NC2COC2)nc1-n1cnc(C(=O)N[C@H](CN)c2cccc(Cl)c2)c1` [Example 268, (S)-N-(2-amino-1-(3-chlorophenyl)ethyl)-1-(5-methyl-2-(oxetan-3-ylamino)pyrimidin-4-yl)-1H-imidazole-4-carboxamide], the IC50 in experiment [2] and in experiment [3] (phospho-RSK1(S380)) was not above 100 nM each time.
On to `Cc1cnc(Nc2ccc3c(c2)OCO3)nc1-n1cnc(C(=O)NC(CN)c2cc(F)cc(Cl)c2)c1` (stereo not shown) [Example 269, N-(2-amino-1-(3-chloro-5-fluorophenyl)ethyl)-1-(2-(benzo[d][1,3]dioxol-5-ylamino)-5-methylpyrimidin-4-yl)-1H-imidazole-4-carboxamide], for which the IC50 in experiment [2] and in experiment [3] (phospho-RSK1(S380)) was not above 100 nM in each case.
For `Cc1cnc(NC2CCOc3ccccc32)nc1-n1cnc(C(=O)N[C@H](CN)c2cccc(Cl)c2)c1` (stereo partly drawn) [Example 271, N-((S)-2-amino-1-(3-chlorophenyl)ethyl)-1-(2-(chroman-4-ylamino)-5-methylpyrimidin-4-yl)-1H-imidazole-4-carboxamide], the IC50 in experiment [2] and in experiment [3] (phospho-RSK1(S380)) was not above 100 nM each time.
In the case of `Cc1cnc(Nc2cccc(N3CCOCC3)c2)nc1-n1cnc(C(=O)N[C@H](CN)c2cccc(Cl)c2)c1` [Example 272, (S)-N-(2-amino-1-(3-chlorophenyl)ethyl)-1-(5-methyl-2-((3-morpholinophenyl)amino)pyrimidin-4-yl)-1H-imidazole-4-carboxamide], the IC50 lay within 100 to 250 nM in experiment [2] and 250 to 500 nM in experiment [3] (phospho-RSK1(S380)).
As to `Cc1cnc(NC2CC(F)(F)C2)nc1-n1cnc(C(=O)NCc2cccc(Cl)c2CO)c1` [Example 273, N-(3-chloro-2-(hydroxymethyl)benzyl)-1-(2-((3,3-difluorocyclobutyl)amino)-5-methylpyrimidin-4-yl)-1H-imidazole-4-carboxamide], the values for the IC50 in experiment [2] and in experiment [3] (phospho-RSK1(S380)) were not above 100 nM and 100 to 250 nM, respectively.
For `Cc1cnc(NC2CC(F)(F)C2)nc1-n1cnc(C(=O)NC(CN)c2cc(F)cc(Cl)c2)c1` (stereo not shown) [Example 278, N-(2-amino-1-(3-chloro-5-fluorophenyl)ethyl)-1-(2-((3,3-difluorocyclobutyl)amino)-5-methylpyrimidin-4-yl)-1H-imidazole-4-carboxamide], in that order: not above 100 nM and not above 100 nM.
On to `Cc1cnc(NC2CC(F)(F)C2)nc1-n1cnc(C(=O)N[C@@H](CN)c2cc(F)cc(Cl)c2)c1` [Example 289, (R)-N-(2-amino-1-(3-chloro-5-fluorophenyl)ethyl)-1-(2-((3,3-difluorocyclobutyl)amino)-5-methylpyrimidin-4-yl)-1H-imidazole-4-carboxamide], for which the IC50 in experiment [2] is more than 2500 nM; in experiment [3] (phospho-RSK1(S380)), 500 to 2500 nM.
For `Cc1cnc(NC2CC=CCC2)nc1-n1cnc(C(=O)N[C@H](CN)c2cccc(Cl)c2)c1` (stereo partly drawn) [Example 292, N-((S)-2-amino-1-(3-chlorophenyl)ethyl)-1-(2-(cyclohex-3-en-1-ylamino)-5-methylpyrimidin-4-yl)-1H-imidazole-4-carboxamide], in that order: not above 100 nM and not above 100 nM.
The matching figures for `Cc1cnc(NC2CCOCC2)nc1-n1cnc(C(=O)NCc2ccccc2C(C)(C)O)c1` [Example 293, N-(2-(2-hydroxypropan-2-yl)benzyl)-1-(5-methyl-2-((tetrahydro-2H-pyran-4-yl)amino)pyrimidin-4-yl)-1H-imidazole-4-carboxamide]: 500 to 2500 nM and 500 to 2500 nM.
Turning to `Cc1cnc(NC2CCOCC2)nc1-n1cnc(C(=O)NCc2cccc(Cl)n2)c1` [Example 307, N-((6-chloropyridin-2-yl)methyl)-1-(5-methyl-2-((tetrahydro-2H-pyran-4-yl)amino)pyrimidin-4-yl)-1H-imidazole-4-carboxamide], the IC50 in experiment [1] and in experiment [3] (phospho-RSK1(S380)) was 500 to 2500 nM throughout.
For `Cc1cnc(N[C@H]2CCOC2)nc1-n1cnc(C(=O)NCc2cccc(C(F)(F)F)c2)c1` [Example 311, (S)-1-(5-methyl-2-((tetrahydrofuran-3-yl)amino)pyrimidin-4-yl)-N-(3-(trifluoromethyl)benzyl)-1H-imidazole-4-carboxamide], the IC50 in experiment [2] is more than 2500 nM; in experiment [3], 500 to 2500 nM.
`Cc1cnc(NC2CCOCC2)nc1-n1cnc(C(=O)NC(C(N)=O)c2cccc(Cl)c2)c1` (stereo not shown) [Example 312, N-(2-amino-1-(3-chlorophenyl)-2-oxoethyl)-1-(5-methyl-2-((tetrahydro-2H-pyran-4-yl)amino)pyrimidin-4-yl)-1H-imidazole-4-carboxamide]: the IC50 in experiment [2] is more than 2500 nM; in experiment [3], 500 to 2500 nM.
For `Cc1cnc(N[C@H]2CCOC2)nc1-n1cnc(C(=O)NCc2cc(Cl)cc(Cl)c2)c1` [Example 313, (S)-N-(3,5-dichlorobenzyl)-1-(5-methyl-2-((tetrahydrofuran-3-yl)amino)pyrimidin-4-yl)-1H-imidazole-4-carboxamide], in that order: more than 2500 nM and 250 to 500 nM.
For `Cc1cnc(N[C@H]2CCOC2)nc1-n1cnc(C(=O)NCc2ccc(Cl)c(Cl)c2)c1` [Example 314, (S)-N-(3,4-dichlorobenzyl)-1-(5-methyl-2-((tetrahydrofuran-3-yl)amino)pyrimidin-4-yl)-1H-imidazole-4-carboxamide], in that order: more than 2500 nM and 250 to 500 nM.

By IC50 is commonly meant the concentration that gives 50% inhibition.
